Experimental data taken from patent publication US20240115644A1, “COMPOSITION FOR PREVENTING, IMPROVING OR TREATING GASTRITIS OR PEPTIC ULCER COMPRISING EXTRACT OF CINNAMOMUM CASSIA, FRACTION OF SAID EXTRACT, ISOLATE OF SAID FRACTION OR COMPOUNDS ISOLATED THEREFROM” (CHONG KUN DANG PHARMACEUTICAL CORP., priority 2020, published 2024).

Assays:
Raw 264.7 cells = assay: Nitric oxide (NO) production inhibitory activity in LPS-stimulated Raw 264.7 cells (Griess reagent); assay type: cell-based; set-up: NO inhibition rate (%): concentration or dose not given beside the values; settings: for NO: Raw 264.7 cells, LPS 100 ng/ml, sample concentration not given; for NO inhibition rate (%): vs LPS-only group
Protocol: [Measurement of Anti-Inflammatory Effect in Raw 264.7 Cells] Experimental Example 1. Confirmation of Nitric Oxide Production Inhibitory Activity Nitric oxide (NO) measurement was measuring the amount of nitric oxide (NO) in the supernatant of cells as nitrite and nitrate. The safe form after oxidation from nitrite to nitrate was measured using a griess reagent (Sigma, USA). In a […], 3×10^5 cells were cultured for 24 hours. […] Then, all wells except the normal group were stimulated by adding 100 ng/ml Lipopolysaccharide (LPS). After reacting with the griess reagent for 5 minutes, the absorbance was measured at 540 nm. The calibration curve was prepared using sodium nitrite solution, and the concentration of nitrite was calculated through absorbance. The NO inhibition rate was evaluated by a method of comparing with the group treated only with LPS according to Equation 1 below. The result was shown in the following Tables 7, 8, 9, 10, 11 and 12 and FIGS. 2, 3, 4 and 5. NO inhibition rate (%)=100−[(NO production amount of sample addition group*×100)/NO production amount of sample non-addition group*] [Equation 1] *Lipopolysaccharide (LPS) treatment group

[1] = tested on: indomethacin-induced gastric ulcer; assay: Gastric ulcer index / inhibition rate in indomethacin-induced animal model; assay type: in vivo, rats; settings: for Inhibition rate (%): gastric ulcer, rats, stomach excised 5 h after; for gastric ulcer inhibition rate compared to Stillen and Rebamipide (in words) / level of gastric ulcer inhibition rate despite the very small amount (in words): indomethacin-induced rats, summary of Table 13 and FIG. 7
Description: [Measurement of gastric ulcer inhibitory effect in animals]
Experimental Example 2. Confirmation of Gastric Ulcer Inhibition Rate
Evaluation of Gastric Ulcer Index in Indomethacin-Induced Animal Model
For test animals, 7-week-old male rats without specific pathogens (SPF) were randomly distributed to each group by a randomized method so that the average body weight was distributed as evenly as possible after the adaptation period (7 days). The administration route was single administration of artemisia extract, and rebamipide and ethyl acetate pretreated water extract of Cinnamomum cassia, fraction (N2-1), 3,4-dihydroxybenzaldehyde, ferulic acid, 4-hydroxycinnamaldehyde, as oral administration, respectively, and the dose was calculated and administered as 10 mL/Kg based on the body weight measured on the day of administration. All animals were fasted 48 hours before administration of the test substance and control drug, and then each test substance and control drug were orally administered, and at 30 minutes after administration, indomethacin prepared in advance was orally administered at a dose of 80 mg/kg. After anesthesia with diethyl ether at 5 hours after administration of indomethacin, the stomach was excised and the gastric mucosa was photographed with a digital camera. The area of the damaged part was analyzed using ImageJ software (NIH, Bethesda, MD). The gastric ulcer index was measured according to the following equation.
Gastric ulcer index (%)=(damaged area/total area)×100 [Equation 2]

[2] = Prep-HPLC purified products from N2-1
[3] = single oral dose 1.5 mg/kg 30 min before indomethacin 80 mg/kg p.o.
[4] = Prep-HPLC purified products from R2-2

| Structure (SMILES) | NO (Raw 264.7 cells; [2]) [µM] | NO inhibition rate (%) (Raw 264.7 cells; [2]) | gastric ulcer inhibition rate compared to Stillen and Rebamipide (in words) [1] | level of gastric ulcer inhibition rate despite the very small amount (in words) [1] | NO (Raw 264.7 cells; [4]) [µM] | NO inhibition rate (%) (Raw 264.7 cells; [4]) | also measured |
| --- | --- | --- | --- | --- | --- | --- | --- |
| COc1cc(/C=C/C(=O)O)ccc1O [Compound A, ferulic acid] | 49.57 | 0 | excellent gastric ulcer inhibition rate | very high level of gastric ulcer inhibition rate |  |  | Inhibition rate (%) [1, 3]: 61.8% |
| O=C/C=C/c1ccc(O)cc1 [Compound B, 4-hydroxycinnamaldehyde] | 35.18 | 29 | excellent gastric ulcer inhibition rate | very high level of gastric ulcer inhibition rate |  |  | Inhibition rate (%) ([1]; single oral dose 2.0 mg/kg 30 min before indomethacin 80 mg/kg p.o.): 46.1% |
| O=C(O)CCc1ccccc1O [Compound C, 3-(2-hydroxyphenyl)propanoic acid] | 48.54 | 0 |  |  |  |  |  |
| O=Cc1ccc(O)c(O)c1 [Compound D, 3,4-dihydroxybenzaldehyde] |  |  | excellent gastric ulcer inhibition rate | very high level of gastric ulcer inhibition rate | 44.41 | 10 | Inhibition rate (%) [1, 3]: 61.3% |
| COc1cc(C(=O)O)cc(OC)c1O [Compound E, syringic acid] |  |  |  |  | 47.83 | 0 |  |
| COc1cc(C(=O)O)ccc1O [Compound F, vanillic acid] |  |  |  |  | 49.88 | 0 |  |
| O=C(NC(Cc1cc(=O)[nH]c2ccccc12)C(=O)O)c1ccc(Cl)cc1 (stereo not shown) [Rebamipide, reference compound] |  |  |  |  |  |  | Inhibition rate (%) ([1]; single oral dose 30 mg/kg 30 min before indomethacin 80 mg/kg p.o.): 21.5% |
